Patent publication US20220125791A1, “NOVEL DEVICES” (INTRA-CELLULAR THERAPIES, INC., priority 2019, published 2022)
Read-outs that look alike come from different tables or passages of the source.

Assay: Compound 1 in plasma and ocular tissue following topical administration
Assay type: in vivo, male hypertensive New Zealand White Rabbit
Settings: for AUC(0-t): male, New Zealand White, rabbit, topical or ocular, topical administration, 5% (2-Hydroxypropyl)-β-cyclodextrin in PBS pH 7.4, LC-MS/MS
Description: The goal of this study was to determine the presence/absence of Compound 1 in male hypertensive New Zealand White Rabbit plasma and ocular tissue following a topical administration. For the study, Compound 1 was formulated with 5% (2-Hydroxypropyl)-β-cyclodextrin in phosphate-buffered saline pH 7.4 at 60 μg/eye. Plasma, Cornea, Conjunctiva, Aqueous Humor (AH), and Iris Ciliary Body (ICB) samples were collected for analysis of the concentrations of Compound 1 using LC-MS/MS methods.

## CN1C(=O)c2c(nn(Cc3ccc(-c4ccccn4)cc3)c2Nc2ccccc2)N2C1=N[C@@H]1CCC[C@@H]12 [Compound 1]
60 μg/eye, aqueous humor, read-out: AUC0-24hr in the aqueous humor
  AUC(0-t): 866 ng·h/mL
60 μg/eye, plasma, read-out: AUC0-24hr in the plasma
  AUC(0-t): 46.3 ng·h/mL
Ocular tissue upon topical administration, 60 μg/eye (FIG. 1)
  availability in ocular tissue: rapid availability
plasma, 1 hour after topical administration, 60 μg/eye
  presence in plasma: present
